Source: paper PMC11904948, “Peptide‐Drug Conjugate for Therapeutic Reprogramming of Tumor‐Associated Macrophages in Breast Cancer” (Advanced Science, 2025)
Peptide text beside a SMILES is read from it. * marks the point of attachment. 5FAM = O=C1OC2(c3ccc(O)cc3Oc3cc(O)ccc32)c2ccc(C(=O)*)cc21; Ahx = NCCCCCC(=O)O

Key:
[1] = Liver accumulation in the biodistribution study; format: in vivo, Balb/c mice; conditions: i.v., i.p. and oral, 30 nmol, 24 h circulation, immunostaining, n = 3 mice
Experimental: (§1) We subsequently determined the blood half‐life of FAM‐MACTIDE using i.v. and i.p. administration (Figure S1, Supporting Information).
(§2) When tumors reached ≈100 mm^3, 30 nmol of FAM‐MACTIDE or FAM‐mUNO was injected i.p., i.v. or through oral gavage and circulated for 24 h. […] Blocks were cryosectioned at 10 µm thickness on Superfrost+ slides (ThermoFisher Scientific, catalog no. J1800AMNZ) and stored at −20 °C or used instantly. Immunofluorescence staining was performed as described previously.^[ [5] ^] […] Slides were counterstained using 4,6‐diamidino‐2‐phenylindole (DAPI, 5 µg mL^−1 in PBS, Sigma–Aldrich, catalog no. D9542‐5MG). […] The colocalization analysis was performed using the “Coloc2” plugin in the Fiji program using Mandler's tM2 index. Values were obtained from at least three individual images per mouse per group and their average values were plotted. The FAM mean signal per CD206^+ cell analysis was measured using Fiji, taking the mean FAM signal, and dividing it by the number of CD206^+ cells. Average values were obtained from four images per mouse for n = 3 mice.

[2] = test system: CD206; conditions: cited from earlier work
Source text: Targeting CD206 is also promising for diagnostic purposes, as an increased number of CD206^+ cells in lymph nodes correlates with relapse onset in some cancers.^[ [6] ^] Most synthetic compounds designed to target CD206 utilize mannose as the recognition moiety.

[3] = Peptide stability in 4T1 tumor lysate (LC-MS); format: in vitro ADME; conditions: lysate of 4T1 orthotopic TNBC tumors (mouse), 30 µM peptide, 37 °C, aliquots 0, 10, 30, 60, 180, 1440 min
Experimental: Figure 3 MACTIDE has higher affinity and proteolytic stability than mUNO. A) QCM experiment of MACTIDE, mUNO, and control peptides at a final concentration of 10 µM in PBS on multilayers of PAH/CD206 or control multilayers of PAH/BSA. The black arrow indicates when the peptides were added, blue and red arrows indicate when the washing step with PBS started. B) Integrity of FAM‐MACTIDE and FAM‐mUNO measured by LC‐MS at different time points after incubation of peptides with lysate derived from a 4T1 tumor.
We next evaluated the stability of fluorescein (FAM)‐MACTIDE against proteases from breast tumors. To this end, we incubated both FAM‐MACTIDE and FAM‐mUNO with a tumor lysate obtained from 4T1 orthotopic TNBC tumors using different timepoints and evaluated the integrity of the peptide using liquid chromatography‐mass spectrometry (LC‐MS). We observed that the half‐life of FAM‐MACTIDE in this tumor lysate increased 5‐fold with respect to FAM‐mUNO (Figure 3B).
For peptide stability measurements, 200 µL of freshly prepared tumor lysate was mixed with 50 µL of PBS (as control), 30 µM of FAM‐mUNO, or 30 µM of FAM‐MACTIDE and incubated at 37 °C. 40 µL aliquots were taken at 0, 10, 30, 60, 180 and 1440 min. 80 µL of methanol was added to each aliquot and it was immediately stored at −80 °C until analysis later on the same or the following day. […]

[4] = Blood half-life by plasma fluorescence; format: in vivo, mice; conditions: i.v. and i.p., 30 nmoles, plasma fluorescence in FAM channel, n = 3; compared with FAM-mUNO values of ref 5
Source text: We subsequently determined the blood half‐life of FAM‐MACTIDE using i.v. and i.p. administration (Figure S1, Supporting Information). […] Importantly, we observed low liver accumulation with these administration routes for both peptides (Figure S2, Supporting Information).
Figure S1.: Pharmacokinetics of i.p. and i.v. administered FAM-MACTIDE (30 nmoles) analyzed by detecting plasma fluorescence in the FAM channel at different timepoints (n=3).

[5] = test system: CD206^+ TAM; test: In vivo homing to CD206+ TAM in orthotopic 4T1 tumor-bearing mice; set-up: species or system Balb/c mice; conditions: 30 nmol, 24 h circulation
Experimental: as §1
Thirty nmol of FAM‐MACTIDE or FAM‐mUNO were administered i.v. (A), i.p. (B), or orally (C) and left to circulate for 24 h. After 24 h, mice were sacrificed, and the organs were collected, fixed, cryoprotected, sectioned, and immunostained for FAM (shown in green) and CD206 (shown in red). The CD206/FAM colocalization indices were calculated from representative images from n = 3 tumors, using Fiji (Mandler's tM2 index) and the signal intensity per CD206^+ TAM (i.p. administration) was quantified using ImageJ (B). Scale bars = 100 µm. ^* p ≤ 0.05, ^** p ≤ 0.01 (Anova one‐way fisher LSD).
as §2

[6] = set-up: method as in PMID 36632235; conditions: cited from earlier work
[7] = general statement, no reference given; cited from earlier work
Source text: Verteporfin (V), is a photosensitizer and inhibitor of the activation of YAP.^[ [41] ^] […] Verteporfin, in its liposomal formulation Visudyne, is an approved drug for certain ophthalmological indications. In clinical trials for cancer therapy, Verteporfin is mostly used for photodynamic therapy (clinical trial identifiers: NCT03067051, NCT03033225, NCT04590664).

[8] = set-up: method as in PMID 39575977; conditions: cited from earlier work

## C[C@H](NC(=O)CNC(=O)[C@@H]1CCCN1C(=O)[C@H](CO)NC(=O)[C@H](CS)NC(=O)CCCCCNC(=O)c1ccc2c(c1)C(=O)OC21c2ccc(O)cc2Oc2cc(O)ccc21)C(=O)N[C@@H](CCCCN)C(=O)O [FAM‐mUNO, reference compound] ({5FAM-Ahx}-CSPGAK-OH)
[1]
  liver accumulation: does not accumulate in the liver

## OC[C@H]1OC(O)[C@@H](O)[C@@H](O)[C@@H]1O (stereo partly drawn) [mannose]
[2]
  affinity of mannose (CD206 recognition moiety): millimolar range

## FAM‐Ahx‐G(CTKSIPPIC)SPGAK‐OH (disulfide) [FAM‐MACTIDE, carboxyfluorescein-labelled MACTIDE]
[3]
  half‐life in tumor lysate, fold increase with respect to FAM‐mUNO: 5 fold
[4]
  blood half‐life: equal to those obtained previously for FAM‐mUNO
[1]
  liver accumulation: does not accumulate in the liver
[5]; i.p., 4T1 tumors, Fiji tM2 index, n = 3 tumors
  CD206/FAM colocalization: 80%
[5]; i.p., 4T1 tumors, ImageJ, n = 3 mice
  FAM intensity per CD206^+ TAM, fold higher than FAM‐mUNO: 10 fold
[5]; i.v., immunostaining of 4T1 tumor sections for FAM and CD206
  CD206^+ TAM targeting, intravenous: showed CD206^+ TAM targeting
[5]; oral gavage, immunostaining of 4T1 tumor sections
  CD206^+ TAM targeting, oral: targeted CD206^+ TAM

## Verteporfin
[6]
  cardiotoxicity in vivo: cardiotoxicity
[7]
  solubility in water: insoluble in water
[8]
  cell specificity of free Verteporfin: not cell‐specific
